Assay results as given in patent US20210145802A1, “THERAPY FOR OPHTHALMOLOGICAL CONDITIONS” (WREN THERAPEUTICS LIMITED, priority 2018, published 2021).

How the values were obtained:
Aβ42 oligomers [1] = target: T1, Aβ42 oligomers (Homo sapiens, UniProt P05067); assay: Ca2+ influx assay (lipid vesicle disruption by aggregates); format: biochemical; conditions: 2 μM Aβ42; 5-fold excess added at 0 h; measured at 2 h
T1 construct: […]; made in house; host or cells: E. coli BL21 Gold (DE3)
Experimental: Single vesicles tethered to PLL-PEG coated borosilicate glass coverslides (VWR International, 22×22 mm, product number 63 1-0122) were placed on an oil immersion objective mounted on an inverted Olympus IX-71 microscope. Each coverslide was affixed at Frame-Seal incubation chambers and was incubated with 50 μL of HEPES buffer of pH 6.5. Just before the imaging, the HEPES buffer was replaced with 50 μL Ca^2+ containing buffer solution L-15. 16 (4×4) images of the coverslide were recorded under three different conditions (background, in the presence of Aβ42 and after addition of ionomycin (Cambridge Bioscience Ltd, Cambridge, UK), respectively). The distance between each field of view was set to 100 μm, and was automated (bean-shell script, Micromanager) to avoid any user bias. After each measurement the script allowed the stage (Prior H117, Rockland, Mass., USA) to move the field of view back to the start position such that identical fields of view could be acquired for the three different conditions. Images of the background were acquired in the presence of L15 buffer. For each field of view 50 images were taken with an exposure time of 50 ms. […] The recorded images were analysed using ImageJ to determine the fluorescence intensity of each spot under the three different conditions in the presence of an aggregation mixture incubated with and without Netoglitazone.

Aβ42 oligomers [2] = target: T1, Aβ42 oligomers; assay: ELISA with oligomer-specific antibody; format: biochemical; conditions: 5 μM Aβ42; 5-fold excess; at half-time of aggregation of Aβ42 alone
Experimental: 20 μl Aliquots were taken at the t50 (i.e. half-time) from aggregation reactions of 5 μM Aβ42 in the absence and in the presence of 5-fold excess of Netoglitazone. Samples were then immobilised on a 96-well Maxisorp ELISA plate (Nunc, Roskilde, Denmark) with no shaking for 1 h at room temperature. The plate was then washed three times with 20 mM Tris pH 7.4, 100 mM NaCl and incubated in 20 mM Tris pH 7.4, 100 mM NaCl, 5% BSA under constant shaking overnight at 4° C. The day after the plate was washed six times with 20 mM Tris pH 7.4, 100 mM NaCl and then incubated with 30 μl solutions of 5 μM oligomer-specific antibody under constant shaking either for 1 hour or overnight at room temperature. At the end of this incubation, the plate was washed six times with 20 mM Tris pH 7.4, 100 mM NaCl and incubated with 30 μl solutions of Rabbit polyclonal to 6× His Tag® HRP conjugated (Abcam, Cambridge, UK) at a dilution of 1:4000 in 20 mM Tris pH 7.4, 100 mM NaCl, 5% BSA under shaking for 1 hour at room temperature. […] Finally, the amount of bound oligomer-specific antibody was quantified by using 1-Step™ Ultra TMB-ELISA Substrate Solution (ThermoFisher Scientific, Waltham, Mass., United States), according to manufacturer instructions, and measuring the absorbance at 450 nm by means of a CLARIOstar plate reader (BMG Labtech, Aylesbury, UK).

[3] = tested on: CL2355 (Aβ1-42Neur worms); assay: Automated motility assay, Aβ1-42Neur worms; format: in vivo, C. elegans; conditions: compared to untreated worms
Experimental: (§1) Briefly, Netoglitazone stocks (5 mM in 100% DMSO) were used at an appropriate concentration to seed 9-cm NGM plates. Plates were then placed in a laminar flow hood at room temperature (22° C.) for up to 4 hours to dry. C. elegans cultures were then transferred onto media seeded with compound as L4 stage or Day 3 for late treatments and incubated at 24° for the whole experiment. Experiments were carried out at different Netoglitazone concentrations ranging from 0.05 to 500 μM in 1% DMSO. As controls, plates seeded only with 1% DMSO were used.
(§2) All C. elegans populations were cultured at 20° C. and developmentally synchronized from a 4 h egg-lay. At 64-72 h post-egg-lay (time zero), individuals were transferred to FUDR plates, and body movements were assessed over the times indicated. At different ages, the animals were washed off the plates with M9 buffer and spread over an OP-50 unseeded 9 cm plate, after which their movements were recorded at 20 fps using a recently developed microscopic procedure (M. Perni et al., Massively parallel C. elegans tracking provides multi-dimensional fingerprints for phenotypic discovery. J. Neurosci. Methods. 306, 57-67 (2018)) for 1 min. Up to 600 animals were counted in each experiment in duplicate unless stated otherwise. […]

[4] = tested on: CL2331 (Aβ3-42::GFPMuscular worms); assay: Automated motility assay, Aβ3-42::GFPMuscular worms; format: in vivo, C. elegans; conditions: compared to untreated worms
Experimental: CL2331; dvIs37 [myo-3p::GFP::A-Beta (3-42)+rol-6(su1006)] (Aβ3-42::GFPMuscular worms). Maintain at 16 C. Roller. Diffuse and aggregated GFP expression in body wall muscle. Low brood size. Sicker at higher temperatures. (C. D. Link et al., The β amyloid peptide can act as a modular aggregation domain. Neurobiol. Dis. 32, 420-425 (2008));
Briefly, Netoglitazone stocks (5 mM in 100% DMSO) were used at an appropriate concentration to seed 9-cm NGM plates. Plates were then placed in a laminar flow hood at room temperature (22° C.) for up to 4 hours to dry. […]
as §2

N2 healthy control worms = assay: Automated motility assay, healthy worms; format: in vivo, C. elegans; conditions: same concentration range; compared with effect in Aβ worms
Experimental: N2 C. elegans var. Bristol used as controls (also labelled “healthy”). Generation time is about 3 days. Brood size is about 350, wild type phenotype, sub-cultured in 1973 (S. Brenner, The genetics of Caenorhabditis elegans. Genetics. 77, 71-94 (1974)).
as §1, with “Experiments were carried out at different Netoglitazone concentrations ranging from 0.05 to 500 μM in 1% DMSO. As controls, plates seeded only with 1% DMSO were used.” left out
as §2

T1 sequence (P05067 671-713): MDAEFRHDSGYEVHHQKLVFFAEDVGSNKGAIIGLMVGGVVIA

O=C1NC(=O)C(Cc2ccc3cc(OCc4ccccc4F)ccc3c2)S1 (centres unmarked) [Netoglitazone]
protection against vesicle disruption (Ca2+ influx) by Aβ42 species (Aβ42 oligomers [1]): protected against the neurotoxic species-induced vesicle disruption | Aβ42 oligomer concentration (ELISA) (Aβ42 oligomers [2]): significant reduction | motility of Aβ1-42Neur worms [3]: significantly improves the motility | motility of Aβ3-42::GFPMuscular worms [4]: significantly improves the motility | effect on mobility of healthy worms (N2 healthy control worms): negligible
